In PubChem BioAssay AID504740 (National Center for Advancing Translational Sciences (NCATS), 2011) one finds percent remaining data, which are given here for one compound.

The series deals with mouse plasma stability, LC-MS/MS, 48 h. Description: Inhibitors of Bloom's syndrome helicase: Mouse Plasma Stability Profiling. The following applies: at 2 µM; hits give high values. An excerpt:
Survival of cells and the faithful propagation of the genome depend on elaborate mechanisms of detecting and repairing DNA damage. Treatment of advanced cancer relies on radiation therapy or chemotherapy, which kill cancer cells by causing extensive DNA damage. It is often found, that cancer cells develop resistance to therapy through enhanced activity of DNA repair functions; this has led to an increased interest in developing drugs that interfere with DNA repair, which could sensitize cancer cells to conventional therapy. Bloom syndrome helicase (BLM), is important in resolving abnormal DNA structures formed during replication or homologous recombination. Shutting down the expression of BLM leads to chromosomal instability and higher radiation sensitivity in cultured cells. After the completion of a qHTS campaign, secondary assays, and rounds of medicinal chemistry, a compound was identified to be further characterized through in vitro ADME assays. The stability of the lead compound in mouse plasma is tested because this parameter has a significant impact on many ADME-concerned properties of drugs, such as uptake, distribution, transport, and bioavailability. […]
2uM of compound is incubated in mouse plasma; the reference compound is procaine. Compounds are incubated at 37 deg C for the pre-determined time periods and the when aliquots are removed. Samples are analyzed with LC-MS/MS.

Take `O=C(Nc1ccc(F)c(C(F)(F)F)c1)Nc1nnc(-c2ccncc2)s1`: the percent remaining is 100%.
